pIC50: −log10 of the molar value. Counter-ions that a name gives are not always drawn.
Tests used:
[1] = test system: LoVo cells; assay: Cell proliferation assay (Cell Titer-Glo), LoVo cells; assay type: cell-based; settings: Homo sapiens, typically 72 hrs post-treatment
Experimental: (§1) The effects of test compounds were studied in five cell lines with various histotypes. The cancer cells (Table 4) were harvested during the logarithmic growth period and counted. Adjust cell concentrations to the appropriated number with respective medium, and add 90 μL cell suspensions to 96-well plates. After cells were seeded, the plates were shaken gently to distribute cells evenly and incubated at 37° C., 5% CO2 on day 1.
(§2) Cells were treated with test compounds at 9 concentrations within a desired concentration range (e.g. 1.5 nM-10 μM) on day 2 by series diluting the test compound stock solution (10 mM in DMSO) with culture medium. Cell viability was assessed by Cell Titer-Glo® as recommended by Promega (Cat. No.: G7572, Promega) typically 72 hrs post-treatment.
(§3) Cell viability data were plotted using GraphPad Prism (version 5, GraphPad Software, Inc., San Diego, Calif.). In addition, a nonlinear regression model with a sigmoidal dose response and variable slope within GraphPad Prism was used to calculate the IC50 value of individual test compounds.

[2] = test system: A549 cells; assay: Cytotoxicity assay (resazurin), A549 cells, 96 hr; assay type: cell-based; settings: Homo sapiens, read-out: Cell Viability A549 IC50
Experimental: (§4) A549 (CCL-185; ATCC) and A427 (HTB-53; ATCC), both lung epithelial cell lines were seeded in their respective medium (DMEM/MEM, 10569044/41090101; Gibco) at a cell count of 1500 cells per 100 μL per well in a 96 well edge plate (167425; ThermoFisher). Cells were allowed to grow at 37° C. for 24 hr in 5% CO2 environment (culture conditions) in a Nuaire incubator (humidified). Serially diluted test compounds (100 μL) within the desired testing concentration ranges were added to the culture plate were further incubated in culture conditions for 72 hr and 96 hr for A427 and A549 respectively. The experiment was terminated at the designated incubation time by replacing the medium with 100 μL of 1 mM of resazurin (R7017; Sigma) prepared in respective culture medium, and the plates were further incubated in culture conditions for 4-6 hr. Fluorescence was recorded using a multimodal plate reader (Biotek Synergy Neo) at an excitation wavelength of 535 nm and emission wavelength of 590 nm to obtain relative fluorescence units. Data analysis was done by subtracting the background fluorescence (only medium blank) value from each reading and then normalizing with the vehicle control (DMSO treated cells) to obtain percent survival/proliferation. Percent survival was then subtracted by 100 to get the percent inhibition of proliferation which was used to calculate IC50 values. Potency of compounds in other cell lines (As-Pc-1, Panc-10.05, MDAMB231, A172) was determined in an analogous manner.

[3] = molecular target: WEE1 kinase enzyme (Homo sapiens (Human), UniProt P30291); assay: WEE1 IC50 determination, LanthaScreen Terbium labeled TR-FRET kinase assay; assay type: biochemical; settings: WEE1 enzyme 1 nM
Chain of WEE1 kinase enzyme (P30291 whole entry): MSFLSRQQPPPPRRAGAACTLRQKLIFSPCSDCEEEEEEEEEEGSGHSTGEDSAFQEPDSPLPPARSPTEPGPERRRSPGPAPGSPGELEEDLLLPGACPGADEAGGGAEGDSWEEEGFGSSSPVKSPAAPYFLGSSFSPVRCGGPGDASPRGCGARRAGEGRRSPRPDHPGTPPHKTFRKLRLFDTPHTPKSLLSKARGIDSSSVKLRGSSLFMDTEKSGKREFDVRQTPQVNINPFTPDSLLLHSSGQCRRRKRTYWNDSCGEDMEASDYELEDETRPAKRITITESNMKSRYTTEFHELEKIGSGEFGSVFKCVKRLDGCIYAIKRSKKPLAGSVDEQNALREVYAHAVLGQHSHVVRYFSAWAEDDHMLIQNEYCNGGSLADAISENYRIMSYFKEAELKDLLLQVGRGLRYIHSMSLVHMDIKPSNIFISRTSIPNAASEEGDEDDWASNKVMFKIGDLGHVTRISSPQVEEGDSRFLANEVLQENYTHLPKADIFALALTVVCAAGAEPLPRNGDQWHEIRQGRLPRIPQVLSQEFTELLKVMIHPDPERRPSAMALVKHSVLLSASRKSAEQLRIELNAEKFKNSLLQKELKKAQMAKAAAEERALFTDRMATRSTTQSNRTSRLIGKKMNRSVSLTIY
How it was run: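 Human WEE1 (1 nM) was preincubated 10 min with 3-fold diluted compounds, then ATP ([…]) and fluorescent PolyGT substrate (200 nM) were added for 1 h at room temperature in the dark. Terbium antibody/EDTA stop, TR-FRET read (ex 340, em 495/520 nm); IC50 from four-parameter logistic fit of percent inhibition.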

[4] = test system: HCT-116 cells; assay: Cell proliferation assay (Cell Titer-Glo), HCT-116 cells; assay type: cell-based; settings: Homo sapiens, typically 72 hrs post-treatment, read-out: IC50 HCT116
Experimental: as §1, §2, §3

[5] = test system: NCI-H460 cells; assay: Cell proliferation assay (Cell Titer-Glo), NCI-H460 cells; assay type: cell-based; settings: Homo sapiens, typically 72 hrs post-treatment
Experimental: as §1, §2, §3

[6] = test system: A427 cells; assay: Cell proliferation assay (Cell Titer-Glo), A427 cells; assay type: cell-based; settings: Homo sapiens, A-427, typically 72 hrs post-treatment
Experimental: as §1, §2, §3

[7] = test system: A427 cells; assay: Cytotoxicity assay (resazurin), A427 cells, 72 hr; assay type: cell-based; settings: Homo sapiens, A-427, read-out: Cell Viability A427 IC50
How it was run: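 Cells seeded at 1500 per well, grown 24 hr at 37° C, 5% CO2, then exposed to serially diluted compounds for 72–96 hr before 4–6 hr with 1 mM resazurin (Ex 535/Em 590 nm). Blank-subtracted signal normalised to DMSO control; percent inhibition used for IC50.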

[8] = test system: A2780 cells; assay: Cell proliferation assay (Cell Titer-Glo), A2780 cells; assay type: cell-based; settings: Homo sapiens, typically 72 hrs post-treatment
Experimental: as §1, §2, §3

[9] = test system: A427 cells; assay: Cell viability in combination with cisplatin in A427 cells (resazurin); assay type: cell-based; settings: Homo sapiens, A-427, 24 hr 2.5 μM cisplatin
Experimental: The activity of test compounds in combination with cisplatin in A427 cells was determined. Cells were seeded in a 96 well plate at 2000 cells/well. The next day, cells were treated with 2.5 μM cisplatin or vehicle (1×PBS) and incubated in culture conditions (37° C., 5% CO2) for 24 hr. Following the incubation, culture medium was replaced with medium containing test compound and cisplatin/vehicle, and cells were further incubated in culture conditions for another 72 hr. By this procedure, cisplatin was either continued or discontinued after an initial 24-hr incubation. Addition of test compound was in concentrations needed to obtain an 8-point dose response curve, with concentrations prepared by 3-fold dilution. The assay was terminated upon addition of resazurin, incubation for 4 hr in culture conditions and measurement of fluorescence at excitation and emission wavelengths of 535 and 590 nm, respectively.

[10] = test system: A172 cells; assay: Cytotoxicity assay (resazurin), A172 cells; assay type: cell-based; settings: Homo sapiens, A 172, read-out: Cell Viability A172 IC50
Experimental: as §4

[11] = test system: As-Pc-1 cells; assay: Cytotoxicity assay (resazurin), As-Pc-1 cells; assay type: cell-based; settings: Homo sapiens, ASPC1, read-out: Cell Viability AsPC-1 IC50
Experimental: as §4

[12] = test system: MDAMB231 cells; assay: Cytotoxicity assay (resazurin), MDAMB231 cells; assay type: cell-based; settings: Homo sapiens, MDA-MB-231, read-out: Cell Viability MDAMB 231 IC50
Experimental: as §4

[13] = test system: Panc-10.05 cells; assay: Cytotoxicity assay (resazurin), Panc-10.05 cells; assay type: cell-based; settings: Homo sapiens, Panc1005, read-out: Cell Viability Panc 10.05 IC50
Experimental: as §4

[14] = test system: CDC2 at Tyr15 residue; settings: in combination with gemcitabine, carboplatin, or cisplatin; cited from earlier work
[15] = then compound + cisplatin 72 hr, read-out: Cell viability IC50 in A427 cells with 2.5 μM cisplatin: 24 hr cisplatin then compound + cisplatin
[16] = then compound alone 72 hr, read-out: Cell viability IC50 in A427 cells with 2.5 μM cisplatin: 24 hr cisplatin then compound

Compound | pIC50 [1] | pIC50 [3] | pIC50 [4] | pIC50 [5] | pIC50 [8] | pIC50 [2] | pIC50 [6] | pIC50 [7] | pIC50 [9, 15] | pIC50 [9, 16] | pIC50 [10] | pIC50 [11] | pIC50 [12] | pIC50 [13] | Phosphorylation of CDC2 at Tyr15 [14]
CC1(C)CN(C(=O)CO)Cc2cc(Nc3ncc4c(n3)OCN(c3c(Cl)cccc3Cl)C4=O)ccc21 [Example 1.3] | 5.08 | 7.40 | 5.09 | < 5.00 | – | 5.52 | 5.22 | 5.34 | – | – | – | – | – | – | –
O=C1c2cnc(Nc3ccc(C4CCNCC4)cc3)nc2OCN1c1c(Cl)cccc1Cl [Example 1.12] | – | 7.13 | – | – | – | 5.33 | 5.47 | 5.45 | – | – | 5.15 | 5.10 | 5.04 | 5.50 | –
O=C1c2cnc(Nc3ccc(N4CCNCC4)c(CO)c3)nc2OCN1c1c(Cl)cccc1Cl [Example 1.16] | – | 7.31 | – | – | – | 5.40 | 5.52 | 5.67 | > 7.85 | 6.74 | – | – | – | – | –
N#Cc1cc(Nc2ncc3c(n2)OCN(c2c(Cl)cccc2Cl)C3=O)ccc1N1CCNCC1 [Example 1.55, 5-(3-(2,6-dichlorophenyl)-4-oxo-3,4-dihydro-2H-pyrimido[5,4-e][1,3]oxazin-7-ylamino)-2-(piperazin-1-yl)benzonitrile] | – | 6.97 | – | – | 5.17 | 5.80 | – | 5.63 | > 7.85 | 6.28 | – | – | – | – | –
Cc1cc(Nc2ncc3c(n2)OCN(c2c(Cl)cccc2Cl)C3=O)ccc1C1CCNCC1 [Example 1.60] | – | 7.36 | – | – | – | 5.08 | – | 5.59 | – | – | 5.32 | 5.54 | 5.27 | 5.55 | –
C=CCn1c(=O)c2cnc(Nc3ccc(N4CCN(C)CC4)cc3)nc2n1-c1cccc(C(C)(C)O)n1 [MK-1775, 1,2-allyl-1-(6-(2-hydroxypropan-2-yl)pyridin-2-yl)-6-((4-(4methylpiperazin-1-yl)phenyl)amino)-1H-pyrazolo[3,4-d]pyrimidin-3 (2H)-one] | – | – | – | – | – | – | – | – | – | – | – | – | – | – | abolished the phosphorylation of CDC2 at Tyr15 residue

Continued by rising pIC50 [3], values first:

pIC50 [1] | pIC50 [3] | pIC50 [4] | pIC50 [5] | pIC50 [8] | Compound | pIC50 [2] | pIC50 [6] | pIC50 [7] | pIC50 [9, 15] | pIC50 [9, 16] | pIC50 [10] | pIC50 [11] | pIC50 [12] | pIC50 [13] | Phosphorylation of CDC2 at Tyr15 [14]
– | 7.46 | – | – | – | O=C1c2cnc(Nc3ccc4c(c3)CNCC4)nc2OCN1c1c(Cl)cccc1Cl [Example 1.24] | 5.19 | 5.55 | 5.53 | 7.22 | 6.92 | – | – | – | – | –
– | 7.48 | – | – | – | COc1cc(Nc2ncc3c(n2)OCN(c2c(Cl)cccc2Cl)C3=O)ccc1N1CCNCC1 [Example 1.53, 3-(2,6-dichlorophenyl)-7-(3-methoxy-4-(piperazin-1-yl)phenylamino)-2H-pyrimido[5,4-e][1,3]oxazin-4(3H)-one dihydrochloride] | 5.33 | – | 5.44 | – | – | 5.01 | 5.62 | 4.98 | 5.03 | –
– | 7.68 | – | – | – | CC1(C)NCCc2cc(Nc3ncc4c(n3)OCN(c3c(Cl)cccc3Cl)C4=O)ccc21 [Example 1.227] | 5.04 | – | 5.66 | – | – | 5.18 | 5.53 | 5.06 | 5.31 | –
– | 7.96 | – | – | 5.41 | CC1(C)CNCc2cc(Nc3ncc4c(n3)OCN(c3c(Cl)cccc3Cl)C4=O)ccc21 [Example 1.10] | 5.59 | 5.78 | 5.70 | > 7.85 | 6.44 | – | – | – | – | –
– | 7.96 | – | – | – | O=C1c2cnc(Nc3ccc4c(c3)CNCC43CC3)nc2OCN1c1c(Cl)cccc1Cl [Example 1.51, 3-(2,6-dichlorophenyl)-7-(2′,3′-dihydro-1′H-spiro[cyclopropane-1,4′-isoquinoline]-7′-ylamino)-2H-pyrimido[5,4-e][1,3]oxazin-4(3H)-one] | 5.19 | – | 5.52 | – | – | 5.10 | 5.49 | 5.06 | 5.48 | –

Reference: patent publication US10807994B2, “Heterocyclic compounds and uses thereof” (NUVATION BIO INC., priority 2017, dated 2020)
